From patent US12343344B2 (NOVARTIS AG, priority 2019, dated 2025)
Converted amounts (≈) assume the structure as drawn.

Columns and labels:
[1] = test system: phosphorylated ERK1/2 (pERK); experiment: in vitro pERK inhibition in DETROIT-562 cells; assay type: cell-based; settings: Homo sapiens
Excerpt: (§1) SHP2 inhibition can be measured by assessing biomarkers within the MAPK signaling pathway, such as decreased levels of phosphorylated ERK1/2 (pERK) and downregulation of dual specificity phosphatase 6 (DUSP6) mRNA transcript.

[2] = test system: Cyclin D1, phospho-RB in HCC827 cells; experiment: immunoblot of signalling proteins in HCC827 cells; assay type: cell-based; settings: HCC827, 48 hours treatment, TNO155 together with ribociclib (FIG. 2)
Experimental: HCC827 cells were plated in 6-well plates at a density of 2×10^5 cells/well in 2 ml of complete culture medium. […] 48 hours after the treatment, cells were harvested in freshly prepared RIPA cell lysis buffer supplemented with Protease and Phosphatase Inhibitor Cocktail. Proteins extracted from cell lysates were separated by electrophoresis using a NuPAGE 4-12% Bis-Tis gel and were transferred to nitrocellulose membranes, followed by standard immunobloting procedures. The primary antibodies used were all from Cell Signaling Technology with the following catalog numbers: phospho-RB (S807/811, #8516), Cyclin D1 (#2978), cleaved PARP (#9546), phospho-ERK (T202/Y204, #4370), phospho-RSK3 (T356/S360, #9348), phospho-AKT (S473, #4060) and Tubulin (#3873). The signals were visualized by simantanous incubation with goat anti-rabbit secondary antibodies conjugated with Alexa Fluor® 700 and the goat anti-mouse secondary antibody conjugated with IRDye 800 CW for Tubulin (protein loading control) and scanning with an Odyssey Infrared Imager System.

[3] = test system: KYSE-520 (esophageal squamous cell carcinoma); experiment: antiproliferation in KYSE-520 cells; assay type: cell-based; settings: Homo sapiens
[4] = test system: DETROIT-562 (pharyngeal squamous cell carcinoma); experiment: antiproliferation in DETROIT-562 cells; assay type: cell-based; settings: Homo sapiens
[5] = test system: tumor DUSP6 biomarker; experiment: dose fractionation studies with tumor DUSP6 biomarker; assay type: in vivo; settings: attained for at least 80% of the dosing interval
Excerpt: as §1

[6] = test system: pRb-positive cell lines derived from diverse cancer types; experiment: pRb phosphorylation and cell cycle in pRb-positive cell lines; assay type: cell-based; settings: more than 40 pRb-positive cell lines
[7] = tolerability in mice; assay type: in vivo
[8] = test system: tumor xenograft models; experiment: in vivo anti-tumor activity in tumor xenograft models; settings: subsets of xenograft models incl. breast, melanoma, neuroblastoma, malignant rhabdoid, lung, pancreas, hematological malignancies
[9] = tolerability in rats; assay type: in vivo
[10] = test system: lineage-matched pRb-negative cell lines; experiment: cell cycle progression in pRb-negative cell lines; assay type: cell-based
[11] = up to 28 days, up to 250 mg/kg once daily orally
[12] = up to 28 days, up to 150 mg/kg once daily orally

| IC50 [1] | IC50 [3] | IC50 [4] | Structure (SMILES) | ribociclib-induced cyclin D1 accumulation [2] | PD inhibition at which maximal efficacy is achieved [5] | G1 to S phase cell cycle progression [6] | Retinoblastoma protein (pRb) phosphorylation [6] | myelosuppression ([7]; correlated with pRb inhibition) | body weight loss [7, 11] | tolerability [7, 11] | in vivo anti-tumor activity [8] | myelosuppression ([9]; correlated with pRb inhibition) | body weight loss [9, 12] | tolerability [9, 12] | effect on cell cycle progression [10] |
| --- | --- | --- | --- | --- | --- | --- | --- | --- | --- | --- | --- | --- | --- | --- | --- |
| 0.0148 µg/mL (≈ 0.0351 µM) | 0.0422 µg/mL (≈ 0.1 µM) | 0.198 µg/mL (≈ 0.47 µM) | C[C@@H]1OCC2(CCN(c3cnc(Sc4ccnc(N)c4Cl)c(N)n3)CC2)[C@@H]1N [TNO155, (3S,4S)-8-(6-amino-5-((2-amino-3-chloropyridin-4-yl)thio)pyrazin-2-yl)-3-methyl-2-oxa-8-azaspiro[4.5]decan-4-amine] | prevention of ribociclib-induced cyclin D1 accumulation | 50% | – | – | – | – | – | – | – | – | – | – |
| – | – | – | CN(C)C(=O)c1cc2cnc(Nc3ccc(N4CCNCC4)cn3)nc2n1C1CCCC1 [ribociclib, 7-cyclopentyl-N,N-dimethyl-2-((5-(piperazin-1-yl)pyridin-2-yl)amino)-7H-pyrrolo[2,3-d]pyrimidine-6-carboxamide] | – | – | interfered | inhibited | myelosuppression was observed | ≤ 12.5% | well-tolerated | demonstrated in vivo anti-tumor activity | myelosuppression was observed | ≤ 12.5% | well-tolerated | no effect |
